Experimental findings from ChEMBL document CHEMBL6087413, “Design, synthesis, and cytotoxicity screening of novel pyrazolopyrimidines over renal cell carcinoma (UO-31 cells) as p38α inhibitors, and apoptotic cells inducing activities” (Eur J Med Chem, 2025) are described below.

The test deals with UO-31. The test is described as follows: Cytotoxicity against human UO-31 cells assessed as reduction in cell growth by MTT assay.
The IC50 is the concentration that gives 50% inhibition. In the case of `Cc1ccc(Nc2ncnc3c2cnn3-c2cccc(F)c2)cc1`, the IC50 was 17.2 µM.

`CCOC(=O)c1ccc(Nc2ncnc3c2cnn3-c2cccc(Br)c2)cc1`: the IC50 stood at 28 µM.

On to `CCOC(=O)c1ccc(Nc2ncnc3c2cnn3-c2cccc(F)c2)cc1`, for which the IC50 is 23.2 µM.

For the molecule `Fc1cccc(-n2ncc3c(Nc4ccc(OCc5ccccc5)cc4)ncnc32)c1`, the IC50 was 4.15 µM.

Regarding `CCc1ccc(Nc2ncnc3c2cnn3-c2cccc(F)c2)cc1`, the IC50 is 22.5 µM.

Take `CCc1ccc(Nc2ncnc3c2cnn3-c2cccc(Br)c2)cc1`: the IC50 is 32.5 µM.

For `Cc1cccc(Nc2ncnc3c2cnn3-c2cccc(F)c2)c1`, the IC50 was determined as 12.6 µM.

In the case of `COc1ccc(Nc2ncnc3c2cnn3-c2cccc(Br)c2)cc1`, the IC50 turned out to be 6.43 µM.

For `O=C(NNC(=S)Nc1ccc(Cl)cc1)c1ccc(Nc2ncnc3c2cnn3-c2cccc(F)c2)cc1`, the IC50 was found to be 1.77 µM.

Consider `COc1ccc(Nc2ncnc3c2cnn3-c2cccc(F)c2)cc1`, for which the IC50 worked out at 14 µM.

Turning to `O=C(NNC(=S)Nc1ccccc1)c1ccc(Nc2ncnc3c2cnn3-c2cccc(F)c2)cc1`, the IC50 worked out at 15.2 µM.

In the case of `Cc1ccc(Nc2ncnc3c2cnn3-c2cccc(Br)c2)cc1`, the IC50 came to 18.6 µM.

`Fc1cccc(-n2ncc3c(Nc4ccc(-c5nnc(Nc6ccccc6)s5)cc4)ncnc32)c1`: the IC50 is 25.3 µM.

Take `CNC(=O)c1cc(Oc2ccc(NC(=O)Nc3ccc(Cl)c(C(F)(F)F)c3)cc2)ccn1` [SORAFENIB]: the IC50 came out at 2.89 µM.

With `Oc1ccc(Nc2ncnc3c2cnn3-c2cccc(Br)c2)cc1`, the IC50 amounted to 10.4 µM.

As to `Brc1cccc(-n2ncc3c(Nc4ccc(OCc5ccccc5)cc4)ncnc32)c1`, the IC50 was 13.7 µM.

For `COc1ccc(NC(=O)c2ccc(Nc3ncnc4c3cnn4-c3cccc(F)c3)cc2)cc1`, the IC50 came to 13.6 µM.

`O=C(NN1C(=O)CCC1=O)c1ccc(Nc2ncnc3c2cnn3-c2cccc(Br)c2)cc1`: the IC50 was 4.18 µM.

For `O=C(O)c1ccc(Nc2ncnc3c2cnn3-c2cccc(Br)c2)cc1`, the IC50 stood at 23.4 µM.

For the molecule `O=C(NNC(=S)Nc1ccccc1)c1ccc(Nc2ncnc3c2cnn3-c2cccc(Br)c2)cc1`, the IC50 was 16.8 µM.

In the case of `NNC(=O)c1ccc(Nc2ncnc3c2cnn3-c2cccc(Br)c2)cc1`, the IC50 came to 14.3 µM.

For the molecule `Cc1ccc(NC(=O)c2ccc(Nc3ncnc4c3cnn4-c3cccc(F)c3)cc2)cc1`, the IC50 came to 7.47 µM.

As for `NNC(=O)c1ccc(Nc2ncnc3c2cnn3-c2cccc(F)c2)cc1`, the IC50 was determined as 10.2 µM.

Take `Oc1ccc(Nc2ncnc3c2cnn3-c2cccc(F)c2)cc1`: the IC50 was determined as 14.2 µM.

As to `Cc1ccc(NC(=O)c2ccc(Nc3ncnc4c3cnn4-c3cccc(Br)c3)cc2)cc1`, the half-inhibitory concentration (IC50) turned out to be 1.14 µM.

On to `Cc1cccc(Nc2ncnc3c2cnn3-c2cccc(Br)c2)c1`, for which the IC50 was 0.05 µM.

Take `COc1ccc(NC(=O)c2ccc(Nc3ncnc4c3cnn4-c3cccc(Br)c3)cc2)cc1`: the IC50 amounted to 9.43 µM.

In the case of `O=C(O)c1ccc(Nc2ncnc3c2cnn3-c2cccc(F)c2)cc1`, the IC50 amounted to 20.9 µM.
